Molecules are shown by their SMILES.

For data set [1] the following is noted: cited from earlier work.
In data set [2] the test system is subjects with MCI due to Alzheimer's disease. The data set can be described thus: Phase IIb placebo-controlled 78-week study, Functional Activities Questionnaire (FAQ) score. Type of data set: in vivo, human. As for the experimental part: (§1) This example describes a phase IIb multicenter, randomized, double-blind, placebo-controlled study evaluating the efficacy and safety of a low-dose levetiracetam, 220 mg, extended-release tablet on slowing progression of MCI due to Alzheimer's disease (prodromal Alzheimer's disease), the results being evaluated using the well-recognized and accepted Clinical Dementia Rating-Sum of Boxes (CDR-SB) scores.
(§2) Subjects for this study were between 55 and 85 years old (inclusive) in good general health, willing and able to consent and to participate for the duration of the study, having an eighth-grade education or good work history sufficient to exclude mental retardation, having visual and auditory acuity adequate for neuropsychological testing, and having proficient fluency of the native local language to participate in all the neuropsychological test assessments. The clinical assessments of 63 participants were used for the analyses.
(§3) The study included up to a 5-week screening period consisting of 3 visits and a 78-week treatment period consisting of 10 visits (1 baseline visit, 3 telephone call visits, and 6 clinic visits). The primary endpoint of the study was the analysis of the change in CDR-SB score from baseline to 78 weeks. Secondary endpoints included the analysis of the change in Functional Activities Questionnaire (FAQ) score from baseline to 78 weeks. Subjects received a low-dose levetiracetam, 220 mg, extended-release tablet or placebo in the morning in identically appearing extended release, one unit oral dosage forms.
FAQ scores were obtained to measure the functional ability of individuals over time. Briefly, FAQ measures instrumental activities of daily life, such as preparing meals and balancing a check book as these functional changes are found earlier in the dementia process compared to more basic activities. The Questionnaire comprises 10 questions which are answered using a 0-3 scoring system for each question with 0 being normal and 3 being dependent on someone else to complete the task. […]

The test system is the same in data set [3]. The experiment in a line: Phase IIb placebo-controlled 78-week study, Clinical Dementia Rating-Sum of Boxes (CDR-SB). Type of data set: in vivo, human. As for the experimental part:
as §1, §2
Blood samples were taken from each subject to determine APOE4 carrier status. Genomic DNA was prepared from the blood samples according to standard procedures. Quality of the genomic DNA samples were quantified using Optical Density and DNA purity was calculated. Using extracted genomic DNA as a template, locus specific DNA fragments were amplified by polymerase chain reaction (PCR). Purified PCR products were used as templates for sequencing reactions. According to the chain terminating methodology of Sanger et al (Sanger F, Nicklen S, Coulson A R. DNA sequencing with chain-terminating inhibitors. Proc Natl Acad Sci USA. 1977 December; 74(12):5463-7), analysis of DNA sequence was based on the termination of a growing DNA strand due to incorporation of a dye labeled ddNTP by the DNA polymerase. The resulting dye-labeled product was detected using an automated sequencing platform. Data was analyzed using the software SEQPATIENT from JSI-medical Systems®.
as §3
CDR-SB testing was performed using standard methods. Briefly, subjects were tested using the following six categories or “boxes”: Memory, Orientation, Judgment and Problem Solving, Community Affairs, Home and Hobbies, and Personal Care. CDR-SB scores were calculated by adding the box scores. The total score ranges from 0 to 18 with a higher scores indicating more impairment). Absolute values and changes from baseline in CDR-SB were summarized using descriptive statistics and presented by APOE4 non-carrier status. Table 3 summarizes the statistical analysis wherein each cell contains a point estimate followed by a 95% Confidence Interval (CI).

Data set [4] concerns entorhinal cortex (ERC) and Brodmann area 35 (BA35) volume in APOE-4 non-carriers. The data set can be described thus: Volumetric MRI of medial temporal lobe subregions (ASHS-T1 segmentation) in the phase IIb study. Type of data set: in vivo, human. The following applies: APOE-4 non-carriers (n=26), baseline to week 78. From the text:
Brain regions of interest were selected prior to the trial apriori based on the location of post-mortem tau accumulation in the early stage of AD (Braak et al., Acta Neuropathologica, 112(4): 389-404 (2006); Braak & Braak, Acta Neuropathologica, 80(5): 479-486 (1990)) and robust atrophy in entorhinal cortex volume in the AD. For this purpose, the Automated Segmentation of Hippocampal Subfields (ASHS) software (Xie et al., Hum Brain Mapp. 40:3431-3451 (2019)) was used. Regions provided by this software include the left and right entorhinal cortex (ERC), Brodmann area 35 (BA35), which largely overlaps with TEC (Braak et al., Acta Neuropathologica, 112(4): 389-404 (2006); Braak & Braak, Acta Neuropathologica, 80(5): 479-486 (1990))) and includes a portion of the perirhinal cortex and BA36, which predominantly encompasses the perirhinal cortex (Xie et al., 2019). High-resolution T1-weighted MRI images of the subjects' brain were collected at baseline and 78 weeks using an MRI scanner. Automatic segmentation was performed using the T1-weighted MRI images using the ASHS-T1 open-source software and see, also Xie et al., Hum Brain Mapp. 40:3431-3451 (2019). […] Volumetric and thickness measurements of the ERC and BA35 were extracted for each subject. […]

[5] abbreviates: APOE-4 non-carrier subgroup (n=26).

As to `CC[C@@H](C(N)=O)N1CCCC1=O` [levetiracetam, (2S)-2-(2-oxopyrrolidin-1-yl)butanamide], the “Time of peak plasma concentrations” value in data set [1] (following oral administration) is reported as “about 1 hour”. Moreover, the Plasma half-life entry in data set [1] (in vivo) is listed as “approximately 7±1 hour”. Further, the “Time to achieve steady state” value in data set [1] (multiple twice-daily dosing) is 2 days. For the same compound, the “Absorption after oral administration” value in data set [1] (oral administration) is “rapidly and almost completely absorbed”. For the same compound, the “Effect of food on bioavailability” value in data set [1] (oral administration) is “not affected by food”. Also, the “Mean FAQ total score change from baseline to week 78” value in data set [2] (APOE-4 carrier subgroup (n=54)) is recorded as 5; in data set [2] (setting [5]), 1.8. Besides, in data set [2] (entire study population), the “Estimated mean FAQ score from baseline at 78 weeks (95% CI)” value was 3.82 (95% CI: 2.10, 5.17). For the same compound, in data set [3] (APOE4 non-carriers (n = 63), 78 weeks), the “CDR-SB Treatment Effect (Difference) versus placebo (point estimate, 95% CI)” value is −0.56 (CI: −1.90, 0.47). For the same compound, in data set [3] (APOE4 non-carriers (n = 63), baseline to 78 weeks, 220 mg extended-release tablet), the “CDR-SB change score (point estimate, 95% CI)” value was 0.96 (CI: 0.08, 2.01). Moreover, the results for the “Mean CDR-SB change score at Week 78” value in data set [3] (APOE-4 carrier subgroup (n=54)) and in data set [3] (entire study population) were 0.95 and 1.12, respectively. In addition, the “Estimated average treatment effect on CDR-SB change score” value in data set [3] (APOE-4 carrier subgroup, Week 78, versus placebo) is on record as −0.10; in data set [3] (APOE-4 non-carrier subgroup, Week 78, versus placebo), −0.45; in data set [3] (entire study population, Week 78, versus placebo (p=0.71)) it was −0.10. In data set [3] (setting [5]), the “Mean CDR-SB change from baseline at Week 78” value is on record as 0.68. In addition, the “Left ERC mean volume change” value in data set [4] (p=0.048 vs placebo) is listed as −1.878%. Moreover, in data set [4] (p=0.094 vs placebo), the “Right BA35 mean volume change” value is −0.789%.

These data come from US20240238246A1, “METHODS FOR PREVENTING OR SLOWING THE PROGRESSION OF COGNITIVE DECLINE OR IMPAIRMENT IN SUBJECTS” (AGENEBIO, INC., priority 2023, published 2024).
